Experiment [1] relates to REL-A (p65) nuclear translocation, HeLa cells. The experiment can be described thus: REL-A (p65) nuclear translocation assay in HeLa cells (classical NF-kB signaling, TNF-α stimulated). Conditions: Homo sapiens, 0.5 h; HeLa cells, 10 ng/mL TNF-α for 30 minutes; read-out: REL-A HeLa Transloc Assay (IC50). The format is cell-based. As to the method: (§1) Several assays were developed to profile the cellular activities of NIK inhibitors.
(§2) (2) A second set of cell assay are used to define the selectivity of NIK inhibitors toward inhibition of classical vs. non-classical NF-kB signaling and rely on quantification of the nuclear translocation of p52 (NF-kB2) and REL-A (p65) using high content cellular imaging. For the p52 (non-classical NF-kB signaling) nuclear translocation assay, HeLa cells are treated with different concentrations of compounds (0.2% DMSO final) in medium containing 10% fetal bovine serum and then stimulated with 100 ng/mL of an anti-lymphotoxin beta receptor antibody (R&D Systems) for 5 hours. In the REL-A nuclear translocation assay, HeLa cells are incubated with compounds (0.2% DMSO final) for 4.5 hours in medium containing 10% fetal bovine serum before stimulating them with 10 ng/mL tumor necrosis factor (TNF)-α (R&D Systems) for 30 minutes. Cells are fixed with 4% paraformaldehyde, permeabilized by adding 0.1% Triton X-100 in phosphate buffered saline, and then are incubated with either 2 ug/mL anti-p52 antibody (Millipore) or 400 ng/mL anti-REL-A (p65) antibody (Santa Cruz Biotechnology). Finally, the cells are incubated with an Alexa488-labeled secondary antibody (Invitrogen) and DRAQ5 DNA stain (Biostatus). Imaging is carried out using an Opera reader (Perkin Elmer) and data are analyzed with the aid of Acapella software (Perkin Elmer). The p52 or REL-Atranslocation into the nucleus is quantified by the ratio of the nuclear to cytoplasmic signal intensity. […] The compounds in listed in Table 1 have the corresponding inhibitory value (IC50 in micromolar) for NIK p52 Translocation Assay as set forth in Table 2.
(§3) The compounds in listed in Table 1 have the corresponding inhibitory values (IC50 in micromolar) for the Translocation Assays as set forth in Table 2.

Experiment [2] has as its system p52 (NF-kB2) nuclear translocation, HeLa cells. The experiment can be described thus: p52 (NF-kB2) nuclear translocation assay in HeLa cells (non-classical NF-kB signaling, anti-lymphotoxin beta receptor antibody stimulated). The format is cell-based. Conditions: Homo sapiens, 100 ng/mL anti-lymphotoxin beta receptor antibody for 5 hours, read-out: p52 HeLa Transloc Assay (IC50). As to the method:
as §1, §2, §3

For experiment [3], the target named is nuclear factor-kappa B (NF-kB)-inducing kinase (NIK) (Homo sapiens (Human), UniProt Q99558). The experiment can be described thus: NIK enzyme inhibition assay (Transcreener ADP, NIK ADP-FP). The format is biochemical.
The mark [4] stands for this setting: purified NIK 0.5 nM, 10 μM ATP, fluorescence polarization, read-out: NIK ADP-FP (Ki μM).

Where two headings read alike, the source gives them in different places.

What is called IC50 is the point on the concentration scale where inhibition reaches its midpoint. As a reminder, the Ki is the dissociation constant of the complex between target and ligand, obtained from inhibition or displacement.

Sequence of nuclear factor-kappa B (NF-kB)-inducing kinase (NIK) (Q99558 whole entry): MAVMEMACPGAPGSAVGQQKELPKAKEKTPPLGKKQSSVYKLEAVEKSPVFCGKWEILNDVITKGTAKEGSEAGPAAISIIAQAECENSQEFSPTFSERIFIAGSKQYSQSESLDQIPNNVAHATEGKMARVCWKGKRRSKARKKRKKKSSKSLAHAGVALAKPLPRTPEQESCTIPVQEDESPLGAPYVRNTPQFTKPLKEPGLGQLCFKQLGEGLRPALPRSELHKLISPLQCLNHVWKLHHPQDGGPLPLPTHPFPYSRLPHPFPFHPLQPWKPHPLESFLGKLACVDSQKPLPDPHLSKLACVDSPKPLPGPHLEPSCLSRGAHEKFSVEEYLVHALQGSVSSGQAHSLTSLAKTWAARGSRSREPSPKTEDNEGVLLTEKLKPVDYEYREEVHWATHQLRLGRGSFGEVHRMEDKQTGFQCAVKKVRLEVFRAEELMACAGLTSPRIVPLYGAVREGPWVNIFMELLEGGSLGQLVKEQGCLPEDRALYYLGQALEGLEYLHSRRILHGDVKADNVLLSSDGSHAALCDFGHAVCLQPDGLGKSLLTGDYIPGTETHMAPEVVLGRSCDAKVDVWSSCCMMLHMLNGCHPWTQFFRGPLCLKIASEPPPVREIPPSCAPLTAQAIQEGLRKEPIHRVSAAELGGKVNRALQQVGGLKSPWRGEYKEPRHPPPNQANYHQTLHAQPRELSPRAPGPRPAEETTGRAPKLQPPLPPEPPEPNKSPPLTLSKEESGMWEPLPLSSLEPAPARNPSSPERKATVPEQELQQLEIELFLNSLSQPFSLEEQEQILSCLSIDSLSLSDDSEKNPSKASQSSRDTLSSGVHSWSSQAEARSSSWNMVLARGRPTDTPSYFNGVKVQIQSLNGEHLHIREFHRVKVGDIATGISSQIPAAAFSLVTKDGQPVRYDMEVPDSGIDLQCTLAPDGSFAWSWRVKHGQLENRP

Consider `CN1CC[C@@](O)(C#Cc2cccc(-n3nc(C(N)=O)c4ccccc43)c2)C1=O` [Compound 1, 1-[3-[2-[(3R)-3-hydroxy-1-methyl-2-oxo-pyrrolidin-3-yl]ethynyl]phenyl]indazole-3-carboxamide], for which the IC50 in experiment [1] was 20000 nM; in experiment [2], 57 nM.
For `CN1CC[C@@](O)(C#Cc2cccc(-n3nc(C(N)=O)c4cc(F)ccc43)c2)C1=O` [Compound 13, 5-fluoro-1-[3-[2-[(3R)-3-hy-droxy-1-methyl-2-oxo-pyrroli-din-3-yl]ethynyl]phenyl] indazole-3-carboxamide] the same measures were 20000 nM and 73 nM.
For `CN1CC[C@@](O)(C#Cc2cccc(-n3nc(C(N)=O)c4cnc(N5CC[C@@H](O)C5)cc43)c2)C1=O` [Compound 138, 1-[3-[2-[(3R)-3-hydroxy-1-methyl-2-oxo-pyrrolidin-3-yl]ethynyl]phenyl]-6-[(3R)-3-hydroxypyrrolidin-1-yl]pyra-zolo[4,3-c]pyridine-3-carbox-amide], the Ki in experiment [3] (setting [4]) is 0.19 nM.
The same measure, in the same setting: then `CN1CC[C@@](O)(C#Cc2cccc(-n3nc(C(N)=O)c4cnc(N5CC[C@H](O)C5)cc43)c2)C1=O` [Compound 139, 1-[3-[2-[(3R)-3-hydroxy-1-methyl-2-oxo-pyrrolidin-3-yl]ethynyl]phenyl]-6-[(3S)-3-hydroxypyrrolidin-1-yl]pyra-zolo[4,3-c]pyridine-3-carbox-amide], with 0.39 nM; and `CN(Cc1ccc2c(c1)c(C(N)=O)nn2-c1cc(C#C[C@]2(O)CCN(C)C2=O)ccn1)C(=O)CCCN` [Compound 141, 5-[[4-aminobutanoyl(meth-yl)amino]methyl]-1-[4-[2-[(3R)-3-hydroxy-1-methyl-2-oxo-pyrrolidin-3-yl]ethynyl]-2-pyridyl]indazole-3-carbox-amide], with 3.27 nM; and `CN1CC[C@](O)(C#Cc2cccc(-n3nc(C(N)=O)c4c3C(=O)NC4)c2)C1=O` [Compound 143, 1-[3-[2-[(3S)-3-hydroxy-1-methyl-2-oxo-pyrrolidin-3-yl]ethynyl]phenyl]-6-oxo-4,5-dihydropyrrolo[3,4-c]pyra-zole-3-carboxamide], with 1.54 nM.
Turning to `CN(C)C(=O)C(O)C#Cc1cccc(-n2nc(C(N)=O)c3ccccc32)c1` (stereo not shown) [Compound 163, 1-[3-[4-(dimethyalmino)-3-hydroxy-4-oxo-but-1-ynyl]phenyl]indazole-3-carboxamide], the Ki in experiment [3] (setting [4]) amounted to 250 nM.
Same read-out and setting: then `CN1CC[C@@](O)(C#Cc2cccc(-n3nc(C(N)=O)c4c3[C@@H](O)CC4)c2)C1=O` [Compound 168, (6S)-6-hydroxy-1-[3-[2-[(3R)-3-hydroxy-1-methyl-2-oxo-pyrrolidin-3-yl]ethynyl]phenyl]-5,6-dihydro-4H-cyclo-penta[c]pyrazole-3-carbox-amide], with 33.7 nM; and `NC(=O)c1nn(-c2cccc(C#C[C@]3(O)CCOC3=O)c2)c2ccccc12` [Compound 171, 1-[3-[2-[(3R)-3-hydroxy-2-oxo-tetrahydrofuran-3-yl]eth-ynyl]phenyl]indazole-3-carbox-amide], with 8.12 nM.
Consider `NC(=O)c1nn(-c2cccc(C#C[C@@]3(O)CCOC3=O)c2)c2ccccc12` [Compound 172, 1-[3-[2-[(3)S-3-hydroxy-2-oxo-tetrahydrofuran-3-yl]eth-ynyl]phenyl]indazole-3-carbox-amide], for which the Ki in experiment [3] (setting [4]) is 473 nM.
On the same count and under the same terms, then `CN1CC[C@@](O)(C#Cc2cccc(-n3nc(C(N)=O)c4cccc(F)c43)c2)C1=O` [Compound 176, 7-fluoro-1-[3-[2-[(3R)-3-hydroxy-1-methyl-2-oxo-pyrrolidin-3-yl]ethynyl]phenyl] indazole-3-carboxamide], with 1.27 nM; and `CN1CC[C@@](O)(C#Cc2cccc(-c3nc(C(N)=O)c4ccc(C(N)=O)cn34)c2)C1=O` [Compound 179, 3-[3-[2-[(3R)-3-hydroxy-1-methyl-2-oxo-pyrrolidin-3-yl]ethynyl]phenyl]imidazo [1,5-a]pyridine-1,6-dicarboxamide], with 11.1 nM; and `CN1CC[C@@](O)(C#Cc2cccc(-n3nc(C(N)=O)c4c3CCC(=O)N4)c2)C1=O` [Compound 180, 1-[3-[2-[(3R)-3-hydroxy-1-methyl-2-oxo-pyrrolidin-3-yl]ethynyl]phenyl]-5-oxo-6,7-dihydro-4H-pyrazolo [4,3-b]pyridine-3-carboxamide], with 0.35 nM.
On the same count and under the same terms, then `CN1CC[C@@](O)(C#Cc2cccc(-n3nc(C(N)=O)c4cc(-c5ncc[nH]5)ccc43)c2)C1=O` [Compound 182, 1-[3-[2-[(3R)-3-hydroxy-1-methyl-2-oxo-pyrrolidin-3-yl]ethynyl]phenyl]-5-(1H-imidazol-2-yl)indazole-3-carboxamide], with 1.51 nM; and `COC1CN(c2cnc3c(c2)c(C(N)=O)nn3-c2cccc(C#C[C@]3(O)CCN(C)C3=O)c2)C1` [Compound 183, 1-[3-[2-[(3R)-3-hydroxy-1-methyl-2-oxo-pyrrolidin-3-yl]ethynyl]phenyl]-5-(3-methoxyazetidin-1-yl) pyrazolo[3,4-b]pyridine-3-carboxamide], with 0.19 nM; and `CN(C)C(=O)c1ccc2c(c1)c(C(N)=O)nn2-c1cccc(C#C[C@]2(O)CCN(C)C2=O)c1` [Compound 184, 1-[3-[2-[(3R)-3-hydroxy-1-methyl-2-oxo-pyrrolidin-3-yl]ethynyl]phenyl]-N5, N5-dimethyl-indazole-3,5-dicarboxamide], with 103 nM.
Turning to `CN1CC[C@@](O)(C#Cc2cccc(-n3nc(C(N)=O)c4cnncc43)c2)C1=O` [Compound 190, 1-[3-[2-[(3R)-3-hydroxy-1-methyl-2-oxo-pyrrolidin-3-yl]ethynyl]phenyl]pyrazolo [3,4-d]pyridazine-3-carboxamide], in experiment [3], the inhibition constant Ki was determined as 6.8 nM.
Regarding `CN1CC[C@@](O)(C#Cc2ccc(F)c(-n3nc(C(N)=O)c4c3COC4)c2)C1=O` [Compound 191, 1-[2-fluoro-5-[2-[(3R)-3-hydroxy-1-methyl-2-oxo-pyrrolidin-3-yl]ethynyl]phenyl]-4,6-dihydrofuro[3,4-c] pyrazole-3-carboxamide], in experiment [3] (setting [4]), the Ki came out at 1.11 nM.
The same measure, in the same setting: then `CN1CC[C@@](O)(C#Cc2cccc(-c3nc(C(N)=O)c4n3CCC4)c2)C1=O` [Compound 192, 3-[3-[2-[(3R)-3-hydroxy-1-methyl-2-oxo-pyrrolidin-3-yl]ethynyl]phenyl]-6,7-dihydro-5H-pyrrolo[1,2-c] imidazole-1-carboxamide], with 28.1 nM; and `C[C@H]1Cc2c(C(N)=O)nn(-c3cccc(C#C[C@]4(O)CCN(C)C4=O)c3)c2C1` [Compound 193, (5S)-1-[3-[2-[(3R)-3-hydroxy-1-methyl-2-oxo-pyrrolidin-3-yl]ethynyl]phenyl]-5-methyl-5,6-dihydro-4H-cyclopenta[c]pyrazole-3-carboxamide], with 0.1 nM; and `C[C@@H]1Cc2c(C(N)=O)nn(-c3cccc(C#C[C@]4(O)CCN(C)C4=O)c3)c2C1` [Compound 194, (5R)-1-[3-[2-[(3R)-3-hydroxy-1-methyl-2-oxo-pyrrolidin-3-yl]ethynyl]phenyl]-5-methyl-5,6-dihydro-4H-cyclopenta[c]pyrazole-3-carboxamide], with 0.05 nM.
The same measure, in the same setting: with `CN1CC[C@@](O)(C#Cc2cccc(-c3nc(C(N)=O)c(N)s3)c2)C1=O` [Compound 195, 5-amino-2-[3-[2-[(3R)-3-hydroxy-1-methyl-2-oxo-pyrrolidin-3-yl]ethynyl]phenyl]thiazole-4-carboxamide] the figure was 0.05 nM; with `CNc1nc2c(s1)c(C(N)=O)nn2-c1cccc(C#C[C@]2(O)CCN(C)C2=O)c1` [Compound 196, 1-[3-[2-[(3R)-3-hydroxy-1-methyl-2-oxo-pyrrolidin-3-yl]ethynyl]phenyl]-5-(methylamino)pyrazolo[3,4-d] thiazole-3-carboxamide], 0.05 nM.
For `Cc1sc(-c2cc(C#C[C@]3(O)CCN(C)C3=O)ccc2F)nc1C(N)=O` [Compound 197, 2-[2-fluoro-5-[2-[(3R)-3-hydroxy-1-methyl-2-oxo-pyrrolidin-3-yl]ethynyl]phenyl]-5-methyl-thiazole-4-carboxamide], in experiment [3] (setting [4]), the Ki is 0.053 nM.
In the case of `CN1CC[C@@](O)(C#Cc2cccc(-n3nc(C(N)=O)c4c3NCCC4)c2)C1=O` [Compound 198, 1-[3-[2-[(3R)-3-hydroxy-1-methyl-2-oxo-pyrrolidin-3-yl]ethynyl]phenyl]-4,5,6,7-tetrahydropyrazolo[3,4-b]pyridine-3-carboxamide], in experiment [3] (setting [4]), the Ki was 0.29 nM.
On the same count and under the same terms, then `CN1CC[C@@](O)(C#Cc2cccc(-n3nc(C(N)=O)c4c3CC(F)(F)C4)c2)C1=O` [Compound 199, 5,5-difluoro-1-[3-[2-[(3R)-3-hydroxy-1-methyl-2-oxo-pyrrolidin-3-yl]ethynyl]phenyl]-4,6-dihydrocyclopenta [c]pyrazole-3-carboxamide], with 0.26 nM.

The values are drawn from patent US9605005B2, “Alkynyl alcohols and methods of use” (Genentech, Inc., priority 2013, dated 2017).
